# Experimental data published in US20250276127A1, “THERAPEUTIC METHODS AND DEVICES” (NORWEGIAN UNIVERSITY OF SCIENCE AND TECHNOLOGY (NTNU), priority 2021, published 2025).
# How the values were obtained:
# Assay type in all cases: in vivo, human
# local blood flow [1] = test: Impact of injection technique (speed) on local blood flow, laser Doppler; details: abdomen
# Method: To observe the impact of injection technique, and particularly speed of injection, on the effect induced by subcutaneous injection of glucagon, an experiment was conducted to compare 2 different injection techniques; one where the injection lasted 1-3 seconds (technique 1), and one where the injection lasted at least 10 seconds (technique 2). 6 injections were given with technique 1 and 4 injections were given with technique 2. In each case, 0.1 mg of glucagon (in a 0.1 ml injection) was injected subcutaneously into the abdomen of the subjects. For each technique, half of the injections were given to a subject and half to a subject. Blood flow was measured on the skin surface at the site of administration by laser Doppler technology.
# In addition, in FIG. 21 the same results are shown together with the results of placebo injections of 0.1 ml of 0.9% saline using the same 2 techniques. For technique 1, 6 placebo injections were given, and for technique 2, 2 placebo injections were given. Again, half of the injections with each technique were done in a subject, and half were done in a subject.
# local blood flow [2] = test: Impact of laser Doppler probe placement on measured local blood flow; details: 0.015 mg SC, upper arms
# Method: The impact of the placement of the laser Doppler probe on the measured effect of glucagon injections on local blood flow was investigated by giving injections at multiple sites with varying distances from the probe. The experiment involved the subcutaneous injection of 0.015 mg of glucagon (in 0.1 ml) or 0.1 ml of 0.9% saline as a control at sites on the lateral sides of the upper arms of the subjects. The injections were given either under the probe, 1.6 cm from the probe centre, 3 cm from the probe centre, or 5 cm from the probe centre. In each case, 6 injections were given, except for 1.6 cm from the probe centre where only 4 saline injections were given. In all cases, half of the injections were given to a subject and half to a subject, except for under the probe, where 4 tests were done on the subject and 2 on the subject. Blood flow was measured on the skin surface by laser Doppler technology.
# blood flow in the skin = test: Local skin blood flow by laser Doppler after subcutaneous injection
# Excerpt: Likewise, the compound with glucagon activity may be administered in an amount which is effective to achieve a local vasodilatory effect, or an effect of increasing local blood flow at the site of its administration. Vasodilatory activity may be assessed, or determined, by measuring blood flow by a laser Doppler method, at an administration site on or in a human or non-human animal subject after administration of the compound. For example, the compound may be injected SC and blood flow just below the skin surface may be determined at the injection site. Such a method is described in Example 1. However, for the methods and uses herein where the compound is used for its effect in the delivery of a therapeutically active agent (e.g. insulin) or in conjunction with the operation of a sensor (e.g. glucose sensor), it is not necessary, and indeed it may be undesirable, for the compound to exert its usual therapeutic effect of increasing blood glucose, or counteracting an episode of hypoglycaemia. The amount, or dose, administered may thus be less, and indeed typically will be less, than a dose which is administered, or typically used, to treat hypoglycaemia. Doses for the compound are discussed in more detail below.
# An experiment was performed on 2 young healthy adult human volunteers. The effect of subcutaneous (hereinafter, SC) injections on blood flow in the skin were tested 6 times in the 2 subjects (4 tests in a subject and 2 tests in a subject). The glucagon was administered by SC injection of 0.1 ml of 1 mg/ml glucagon (i.e. an injection containing 0.1 mg of glucagon) to sites on the lateral side of both upper arms of the subjects. Blood flow was measured on the skin surface at the site of administration by laser Doppler technology. As a control the same volume of physiological saline (0.9%) was injected as a placebo at the same sites.
# This effect was further investigated in a similar experiment with varying doses of glucagon. Again, the same 2 subjects were used, and SC injections of glucagon or placebo were given 6 times (4 tests in a subject and 2 tests in a subject). The glucagon was administered to sites on the lateral sides of both upper arms in amounts of 0.1 mg, 0.015 mg and 0.01 mg (0.1 ml of glucagon at concentrations of 0.1 mg/ml, 0.015 mg/ml and 0.01 mg/ml, respectively). Blood flow was measured on the skin surface at the site of administration by laser Doppler technology. As a control the same volume of physiological saline (0.9%) was injected as a placebo at the same sites.
# Further experiments were conducted to investigate the effect on local blood flow of subcutaneous injections of glucagon in the abdomen. Again, 2 subjects were used, and SC injections of glucagon or placebo were given 6 times (3 tests in a subject and 3 tests in a subject). The glucagon was administered by SC injection of 0.1 ml of 1 mg/ml glucagon (i.e. an injection containing 0.1 mg of glucagon) to sites on both sides of the abdomen of the subjects. Blood flow was measured on the skin surface at the site of administration by laser Doppler technology. As a control the same volume of physiological saline (0.9%) was injected as a placebo at the same sites.
# This effect was further investigated in a similar experiment with varying doses of glucagon. Again, 2 subjects were used, and SC injections of glucagon or placebo were given 6 times (3 tests in a subject and 3 tests in a subject). The glucagon was administered to sites on both sides of the abdomen in amounts of 0.1 mg, 0.05 mg and 0.015 mg (0.1 ml of glucagon at concentrations of 0.1 mg/ml, 0.05 mg/ml and 0.015 mg/ml, respectively). Blood flow was measured on the skin surface at the site of administration by laser Doppler technology. As a control the same volume of physiological saline (0.9%) was injected as a placebo at the same sites. […]
# [3] = system: glucose levels detected by CGM; test: CGM (Dexcom G6) glucose sensing at meals with injection at the sensor site; details: FIG. 26
# Method: This effect was further investigated in a similar experiment to investigate the effect of glucagon on the performance of CGMs. Again, 2 subjects were used showing data from 12 meals in a non-diabetic […] and 11 meals in a non-diabetic […] collected with Dexcom G6 CGMs. The subjects wore two CGMs placed symmetrically on the lateral side of each overarm. 1-3 minutes before the start of ingesting the meal 0.1 ml of glucagon (1 mg/ml) was injected at the site of one CGM and 0.1 ml of placebo (saline (0.9%) on the contralateral site of CGM. Before each meal, the site of glucagon delivery was decided by a new randomization.
substance,measurement,setting,value
glucagon,"persistence of effect of the ""slow"" injection on local blood flow","local blood flow [1]; 0.1 mg SC, technique 2, versus fast glucagon and placebo injections",more persistent than the effects of any of the other injections
same,"increase in local blood flow, technique 2 (injection at least 10 seconds) versus technique 1 (1-3 seconds)","local blood flow [1]; 0.1 mg in 0.1 ml SC, FIG. 20/21",significantly larger increase in local blood flow
same,effect on blood flow versus placebo,local blood flow [2]; injection 1.6 cm or 3 cm from probe centre,larger than placebo
same,effect on blood flow versus placebo,local blood flow [2]; injection 5 cm from probe centre,except for injection 5 cm from the probe the effect was larger than placebo
same,"increase in local blood flow, placebo subtracted","local blood flow [2]; injection at greater distances (1.6, 3 or 5 cm from probe centre)",less significant
same,"increase in local blood flow, placebo subtracted","local blood flow [2]; injection directly under the probe, FIG. 25",largest increase in local blood flow
same,increase in local blood flow relative to higher doses,"blood flow in the skin; 0.01 mg SC, lateral upper arms, FIG. 15","similar, although less pronounced"
same,effect on local blood flow relative to control injection,"blood flow in the skin; 0.01 mg SC, thighs, FIG. 23/24",did not appear to have a significant effect on local blood flow
same,effect on local blood flow relative to control injection,"blood flow in the skin; 0.015 mg SC, abdomen, FIG. 18/19",did not appear to have a significant effect on local blood flow
same,increase in local blood flow,"blood flow in the skin; 0.015 mg SC, lateral upper arms, average of 6 tests, FIG. 15",400-450 % of the baseline reading
same,increase in local blood flow among doses,"blood flow in the skin; 0.03 mg SC, thighs, FIG. 23/24",biggest increase in local blood flow
same,initial increase in local blood flow,"blood flow in the skin; 0.05 mg SC, abdomen, FIG. 18/19",did not result in a significant increase in local blood flow initially
same,local blood flow versus control injection after 15 minutes,"blood flow in the skin; 0.05 mg SC, abdomen, after 15 minutes",higher than that observed at the same time after the control injection
same,persistence of increase in local blood flow versus control,"blood flow in the skin; 0.05 mg SC, thighs, FIG. 22",more persistent than that observed following administration of the control
same,time after which blood flow values of glucagon and placebo were approximately equal,"blood flow in the skin; 0.05 mg SC, thighs, FIG. 22",around 30 minutes
same,increase in local blood flow versus saline control,"blood flow in the skin; 0.05 mg SC, thighs, FIG. 23/24",slightly larger than that observed following administration of the saline control
same,persistence of increase in local blood flow versus saline control,"blood flow in the skin; 0.05 mg SC, thighs, FIG. 23/24",significantly more persistent
same,increase in local blood flow versus saline,"blood flow in the skin; 0.05 mg SC, thighs, average of 7 tests, FIG. 22",slightly greater than that observed when saline was administered
same,persistence of increase in local blood flow versus control,"blood flow in the skin; 0.1 mg SC, abdomen, FIG. 17",more persistent than that observed following administration of the control
same,time after which blood flow values of glucagon and placebo were approximately equal,"blood flow in the skin; 0.1 mg SC, abdomen, FIG. 17",around 30 minutes
same,initial increase in local blood flow versus control,"blood flow in the skin; 0.1 mg SC, abdomen, FIG. 18/19",greater than that seen following the administration of the same control
same,increase in local blood flow versus saline,"blood flow in the skin; 0.1 mg SC, abdomen, average of 6 tests, FIG. 17",slightly greater than that observed when saline was administered
same,"blood flow after returning to ""normal"" versus before injection","blood flow in the skin; 0.1 mg SC, lateral upper arms, FIG. 14",increased compared to before the glucagon injection
same,effect on local blood flow (flow increase),"blood flow in the skin; 0.1 mg SC, lateral upper arms, average of 6 tests, FIG. 14",several hundred percent
same,increase in local blood flow,"blood flow in the skin; 0.1 mg SC, lateral upper arms, average of 6 tests, FIG. 15",400-450 % of the baseline reading
same,period over which the vasodilatory effect can be seen,"blood flow in the skin; SC, upper arms, FIG. 15",35 to 40 min
same,increase of blood flow at the site of administration,"blood flow in the skin; administered sub-cutaneously, small blood vessels in the skin (summary statement)",several hundred percent
same,persistence of increase in blood flow,"blood flow in the skin; all doses (0.1, 0.015, 0.01 mg) SC, upper arms, not seen with placebo",found to persist even once the value had stabilised
same,dose at which a vasodilatory effect has been observed,"blood flow in the skin; in certain body regions, in some subjects",< 0.01 mg
same,change in local blood flow on administration,blood flow in the skin; summary of the Examples,immediate and large increase in local blood flow
same,level to which blood flow returns,"blood flow in the skin; summary of the Examples, maintained over a prolonged period",higher than the baseline level before glucagon administration
same,glucose levels detected by CGM after meal versus placebo site,"[3]; 0.1 ml of 1 mg/ml injected at CGM site 1-3 minutes before meal, overarm, 23 meals",faster and larger increase in glucose levels detected compared to placebo
same,time at which the effect on CGM glucose can be clearly seen,[3]; in one of the subjects,10 min
